According to article PMC6479694, “Studies on the Interaction between Poly-Phosphane Gold(I) Complexes and Dihydrofolate Reductase: An Interplay with Nicotinamide Adenine Dinucleotide Cofactor” (International Journal of Molecular Sciences, 2019):
Values joined by “and” are separate entries in the source; they are usually repeats but may differ in a detail not shown here. Equal values may be shown once. Read-outs that look alike come from different tables or passages of the source.

Assays:
DHFR from E. coli [1] = target: T1, DHFR from E. coli (Escherichia coli, UniProt P0ABQ4); test: Fluorimetric binding assay, quenching of DHFR tryptophan emission (λexc = 280 nm); settings: for TΔS°: from van't Hoff analysis; for ΔG°: standard free energy equation from ΔH° and TΔS°; for ΔH° / ΔS°: van't Hoff equation from Kd at 25, 10 and −4 °C
T1 construct: made in house
Protocol: The Hepes/methanol solutions of the gold(I) compounds were used for the fluorimetric assays (see materials and methods section) regarding DHFR from E. coli. The emission’s maximum of DHFR was detected at 344 nm upon excitation at 280 nm; by adding additional amounts of the gold complex in Hepes/methanol solutions (ranging among 4 ÷ 50 µM), the quenching of this emission intensity was observed. In Figure 3, spectra showing the effect of ^4L3AuCl on DHFR emission are reported. It is possible to observe the quenching of the Tryptophan’s emission and the corresponding increase of the intrinsic phosphorescence of the gold compound.
(§1) The fluorimetric analysis was performed using a 1 mL quartz cuvette and a Perkin–Elmer Fluorescence Spectrometer LS 55. For all the analysis we used 5–12 µM solutions of DHFR and increasing concentrations of gold(I) compounds in the 4–60 µM range. For some experiments, saturating concentrations of NADPH (50 µM) were added to the initial solutions of DHFR to observe the affinity variation of the complexes with respect to the DHFR.
All the spectra were recorded in the range between 250 and 600 nm using an excitation wavelength characteristic of the Tryptophan, equal to 280 nm. For most of the experiments the temperature was kept constant at 25 °C; furthermore, to analyze the thermodynamic aspects of the reactions (via the van’t Hoff equation), quenching spectra of DHFR in presence of the gold(I) complexes were recorded at −4 and 10 °C as well.
(§2) The fluorimetric data were analyzed using the binding isotherm (Equation (2)), where [Q] is the concentration of the added quenching ligand, F is the measured fluorescence, F0 is the starting fluorescence, Fc is the fluorescence of the fully complexed protein, Kd is the dissociation constant, and n is the Hill coefficient. Indeed, n is a phenomenological parameter, an interaction coefficient, such as when n = 1 the equation describes a complex formation with one site of interaction, when n = 2 binding occurs with a dimer, when 1 < n < 2 a cooperative interaction occurs. (2) F0−F/F−Fc=[Q]^n/(Kd+[Q])^n

DHFR from E. coli [2] = target: T1, DHFR from E. coli; test: Inhibition of DHFR-catalysed reduction of H2F to H4F, spectrophotometric at 340 nm, Dixon plot; format: biochemical; settings: pH 7.3, 30 °C, saturating NADPH, H2F 1.5-10 µM, Hepes/methanol
Protocol: The phosphane gold(I) compounds were used to prepare buffered stock solutions at pH = 7.3 at 30 °C for the inhibition tests of DHFR from E coli. In Table 1, the list of the gold(I) compounds used for the tests and the corresponding inhibition constants are reported.
The inhibition action of the gold phosphane compounds was tested in regards to the reduction of H2F to H4F reaction, catalyzed by DHFR [2]. The inhibition tests were led by analyzing the reciprocal reaction rate upon the addition of Hepes/methanol solutions of gold compounds in different set of tests in the saturated concentration of NADPH. The tests were repeated with different amounts of dihydrofolate (DHF) (1.5 ÷ 10 µM).
The standard deviations were calculated for a minimum of three determinations. (1) 1/ν=Km/VmaxKi[S]∗[I]+1/Vmax(1+Km/[S])
The activity of the DHFR was followed by recording the absorbance with a Shimadzu UV-2450 (UV-Vis spectrophotometer). The enzyme assays were made in a quartz cuvette by using similar experimental conditions: DHFR 3-5 nM, NADPH 60–80 μM, and H2F 1.5, 4, and 10 μM. The procedure consisted in the preparation of the following mixtures: 800–971 µL of 50 mM Hepes buffer at pH = 7.3, 20 μL of NADPH, 10 µl of DHFR, and increasing quantities of gold(I) compounds stock solutions in order to achieve higher accuracy in the measurement of the inhibitory effect. After storing the mixture for 5 min at 30 °C, 4–33 µL of H2F was added. The decreasing absorbance at 340 nm, due to the oxidation of NADPH to NADP^+, was detected after adding the H2F, and expressed in U mL^−1 using the equation: U·mL^−1 = Δabs/Δt/11.8 × dilution factor, where 11.8 is the mMolar extinction coefficient when NADPH and H2F are simultaneously present in solution. The Ki values were calculated with the Dixon plot from the second plot obtained computing the slope values against the reciprocal of the H2F concentrations.

DHFR/NADPH = target: T2, DHFR/NADPH (Escherichia coli, UniProt P0ABQ4); test: Fluorimetric binding assay on DHFR in presence of saturating NADPH; settings: 25 °C, saturating NADPH (50 µM); read-out: Kd ± s.d. (25 °C) in presence of saturating NADPH
T2 construct: made in house
Excerpt: After these preliminary emissive property characterizations, the fluorimetric studies were led in the presence of the enzyme DHFR and the cofactor NADPH [26]. […] Additionally, NADPH is fluorescent, with an absorption maximum at about 340 nm and an emission maximum at about 450 nm. […] Moreover, because NADPH has a maximum of absorption at 340 nm, significant energy transfer from the excited tryptophan of the enzyme to bound NADPH occurs; as a consequence, a new emission at 420–450 nm is then observed. Figure 8 reports the progressive quenching of the DHFR and NADPH emissions by stepwise adding of solution of ^4L3AuCl. Moreover, a slight shift of the typical emission at […] (λexc = 280 nm) is observed.
as §1, §2

DHFR from E. coli [3] = target: T1, DHFR from E. coli; design: method as in PMID 25567238; settings: values obtained in a previous work, cited from earlier work
DHFR = tested on: DHFR; design: method as in PMID 17920, PMID 12359872; settings: cited from earlier work
[4] = UV-visible spectroscopy stability test in Hepes/methanol solution; format: physicochemical; settings: 11.85 µM, Hepes/methanol 80:20, 30 °C, one hour, every 3 minutes
Protocol: The preparation of the gold compounds was performed according to methods already published and was based on the substitution of the labile ligand from the gold precursor [AuCl(Me2S)], by mean of a more coordinative ligand, such as the PPh3 or its modified analogs, ^4L and ^2L. Mole ratio with an excess of the phosphane ligand was pursued with the aim to enhance the reaction yield for tris-phosphane compounds. The solids obtained by crystallization were characterized by elemental analysis, ^1H and ^31P NMR, IR, and ESI Mass spectrometry. The stability of the stock solutions upon dilution was checked by recording UV-visible spectra (see Supplementary Material, Figures S1 and S2). The reactants for the ester reaction and ^4L or ^2L ligands were bought from Aldrich and used without any purification. Methanol or methylene chloride solvents were degassed and dried over molecular sieves.
UV-visible spectroscopy stability tests of compounds 4L3AuCl, 4L2AuCl, and 2L2AuCl on […]
Acquisitions of the absorptions in the range of 200–700 nm of the tested solutions were led for an hour lapse every 3 minutes in 11.85 µM concentration of 4L3AuCL (figure S1), 4L2AuCl, and 2L2AuCl (figure S2) at 30 °C. The stability was tested in Hepes/methanol 80:20, which are the same conditions used for the inhibition tests.
Figure S1. UV-visible spectra for 11.85 µM of 4L3AuCl in hepes/methanol
(1 picture or pasted object on this page, not shown here)

[5] = 25 °C, without NADPH, Hepes/methanol, read-out: Kd ± s.d., T = 25 °C
[6] = 10 °C, without NADPH, read-out: Kd ± s.d. (10 °C) (converted)
[7] = −4 °C, without NADPH, read-out: Kd ± s.d. (−4 °C) (converted)
[8] = 25 °C, when not specified n = 1

| SMILES | Kd (DHFR from E. coli [1]; [5]) [µM] | Kd (DHFR from E. coli [1]; [6]) [µM] | TΔS° (DHFR from E. coli [1]) | ΔG° (DHFR from E. coli [1]) | ΔH° (DHFR from E. coli [1]) | ΔS° (DHFR from E. coli [1]) | Kd (DHFR from E. coli [1]; [7]) [µM] | Ki (DHFR from E. coli [2]) [µM] | Kd (DHFR/NADPH) [µM] | Ki (DHFR from E. coli [3]; read-out: Ki) | also measured |
| --- | --- | --- | --- | --- | --- | --- | --- | --- | --- | --- | --- |
| O=C(O)c1ccccc1 [Benzoic acid, reference compound] | ~4000 |  |  |  |  |  |  |  |  |  |  |
| [Cl][Au]([PH](c1ccccc1)(c1ccccc1)c1ccccc1)[PH](c1ccccc1)(c1ccccc1)c1ccccc1 [L2AuCl, (PPh3)2AuCl] | 5.99 ± 0.4 | 2.47 | 2.5 n. d. * kcal/mol | −7.37 n. d. * kcal/mol | −4.87 n. d.* kcal/mol | 8.42 n. d. * cal/mol K | 3.83 | 0.53 ± 0.03 | 2.22 ± 0.25 |  | Kd (DHFR from E. coli [1]; conditions not stated in the conclusions, read-out: thermodynamic constant for the dissociation of the adduct [DHFR:(PPh3)2AuCl]): ~2 µM |
| c1ccc(P(c2ccccc2)c2ccccc2)cc1 [L, PPh3, reference compound] |  |  |  |  |  |  |  |  |  | 6.16 ± 0.77 µM |  |
| [Cl][Au].c1ccc(P(c2ccccc2)c2ccccc2)cc1 [LAuCl, PPh3AuCl] |  |  |  |  |  |  |  |  |  | 1.21 ± 0.2 µM |  |
| CN(Cc1cnc2nc(N)nc(N)c2n1)c1ccc(C(=O)N[C@@H](CCC(=O)O)C(=O)O)cc1 [Methotrexate] |  |  |  |  |  |  |  |  |  |  | stronger bond to DHFR than DHF (factor) (DHFR): 10^3 |
| O=C(O)c1ccccc1P(c1ccccc1)c1ccccc1.O=C(O)c1ccccc1P(c1ccccc1)c1ccccc1.[Cl][Au] [^2L2AuCl, (2COOHPh-Ph2P)2AuCl] | 10.3 ± 0.65 |  |  |  |  |  |  |  | 4.73 ± 0.68 | 2 µM and 2.07 µM | Stability of the solution (UV-visible spectra 200–700 nm) [4]: no overall changes in solution over |
| O=C(O)c1ccccc1P(c1ccccc1)c1ccccc1.O=C(O)c1ccccc1P(c1ccccc1)c1ccccc1.O=C(O)c1ccccc1P(c1ccccc1)c1ccccc1.[Cl][Au] [^2L3AuCl, [tris(2-benzoate-diphenylphosphanyl)-gold(I)chloride]] | 10.5 ± 1.07 | 7.12 | 2.86 ± 0.1 kcal/mol | -6.8 ± 0.14 kcal/mol | -3.94 ± 0.1 kcal/mol | 9.58 ± 0.08 cal/mol K | 5.11 | 21.3 ± 3.8 | 7.32 ± 2.46 |  | n = Hill coefficient (DHFR from E. coli [1]; 10 °C): 1.41 ± 0.048; n = Hill coefficient (DHFR from E. coli [1]; [8]): 1.23 ± 0.082 |
| O=C(O)c1ccccc1P(c1ccccc1)c1ccccc1 [^2L, 2-(diphenylphosphine) benzoic acid, reference compound] |  |  |  |  |  |  |  |  |  |  | Ki (DHFR from E. coli [3]): No inhibition * |
| O=C(O)c1ccccc1P(c1ccccc1)c1ccccc1.[Cl][Au] [^2LAuCl, (2COOHPh-Ph2P)AuCl] |  |  |  |  |  |  |  |  |  | 1.1 ± 0.3 µM |  |
| O=C(O)c1ccc(P(c2ccccc2)c2ccccc2)cc1.O=C(O)c1ccc(P(c2ccccc2)c2ccccc2)cc1.[Cl][Au] [^4L2AuCl, (4COOHPh-Ph2P)2AuCl] | 4.42 ± 0.56 | 3.52 | 5.29 ± 0.2 kcal/mol | -7.31 ± 0.28 kcal/mol | -2.02 ± 0.2 kcal/mol | 17.76 ± 0.1 cal/mol K | 3.06 |  | 2.35 ± 0.61 | 27 µM and 27.8 µM | Stability of the solution (UV-visible spectra 200–700 nm) [4]: no overall changes in solution over |
| O=C(O)c1ccc(P(c2ccccc2)c2ccccc2)cc1.O=C(O)c1ccc(P(c2ccccc2)c2ccccc2)cc1.O=C(O)c1ccc(P(c2ccccc2)c2ccccc2)cc1.[Cl][Au] [^4L3AuCl, [tris(4-benzoate-diphenylphosphanyl)-gold(I)chloride]] | 3.84 ± 0.29 | 3.32 | 2.19 ± 0.1 kcal/mol | -7.23 ± 0.12 kcal/mol | -5.04 ± 0.08 kcal/mol | 7.34 ± 0.005 cal/mol K | 2 | 4.6 ± 0.5 | 5.05 ± 2.7 |  | Stability of the solution (UV-visible spectra 200–700 nm) [4]: no overall changes in solution over; n = Hill coefficient (DHFR from E. coli [1]; [8]): 1.73 |
| O=C(O)c1ccc(P(c2ccccc2)c2ccccc2)cc1.O=C(O)c1ccc(P(c2ccccc2)c2ccccc2)cc1.O=C(O)c1ccc(P(c2ccccc2)c2ccccc2)cc1.O=S(=O)([O][Au])C(F)(F)F [^4L3AuTfl, [tris(4-benzoate-diphenylphosphanyl)-gold(I)triflate]] | 21.4 ± 3.85 |  | 1.17 ± 0.9 kcal/mol |  | -5.32 ± 3.2 kcal/mol | 3.92 ± 8.8 cal/mol K | 8.08 | 6.33 ± 0.7 |  |  |  |
| O=C(O)c1ccc(P(c2ccccc2)c2ccccc2)cc1 [^4L, 4-(diphenylphosphino)benzoic acid, reference compound] | 59.6 ± 5.7 |  |  |  |  |  |  |  |  |  | Ki (DHFR from E. coli [3]): No inhibition * |
| O=C(O)c1ccc(P(c2ccccc2)c2ccccc2)cc1.[Cl][Au] [^4LAuCl, (4COOHPh-Ph2P)AuCl] |  |  |  |  |  |  |  |  |  | 2.25 ± 0.62 µM |  |
| COC(=O)c1ccc(P(c2ccccc2)c2ccccc2)cc1.COC(=O)c1ccc(P(c2ccccc2)c2ccccc2)cc1.COC(=O)c1ccc(P(c2ccccc2)c2ccccc2)cc1.[Cl][Au] [^4MeL3AuCl] | 13.4 ± 2.24 | 7.63 | 2.29 n. d. * kcal/mol | −6.64 n. d. * kcal/mol | −4.35 n. d. * kcal/mol | 7.69 n. d. * cal/mol K | 21.2 | 12.7 ± 2.1 | 4.55 ± 1.04 |  |  |
